This passage reports EC50 and Ki results from ChEMBL document CHEMBL1124710, “Studies on Ca2+ channel antagonists. A 2-diazo-3,3,3-trifluoropropionamide derivative related to verapamil as a potential photoaffinity probe” (J Med Chem, 1990).

The species named for assay [1] is Rattus norvegicus. The experiment in a line: Effective concentration for negative inotropic effect in rat myocardial ventricular strips. It is filed as functional. The following applies: Cardiac ventricle.
The nature of assay [2]: Binding affinity to displace 0.4 nM of [3H]- gallopamil in rat myocardial membranes. It is filed as cell membranes, Myocardium, Membrane.

What is called EC50 is the concentration giving half of the maximal effect. Higher therefore signals lower potency in that assay. The term Ki denotes the equilibrium dissociation constant of an inhibitor or competing ligand from its target.

In turn, `COc1ccc(C(C#N)(CCCN(C)CCc2ccc(N(C)C(=O)C([N+]#N)C(F)(F)F)cc2)C(C)C)cc1OC` (centres undefined) showed an EC50 in assay [1] of 0.105 µM. This compound also returned a Ki in assay [2] of 0.0376 µM.

On to `COc1ccc(CCN(C)CCCC(C#N)(c2cc(OC)c(OC)c(OC)c2)C(C)C)cc1OC` (centres undefined) [GALLOPAMIL], for which a half-maximal effect in assay [1] (EC50) was put at 0.0218 µM. The same compound came in with a Ki in assay [2] of 0.0155 µM.
